Data as given in ChEMBL document CHEMBL2424589, “Novel hydroxyl tricyclics (e.g., GSK966587) as potent inhibitors of bacterial type IIA topoisomerases” (Bioorg Med Chem Lett, 2013).
Converted amounts (≈) assume the structure as drawn. Each block holds one molecule with its values, some of them ahead of it.

Columns and labels:
[1] = Volume of distribution at steady state in cynomolgus monkey at 3 mg/kg, iv; format: ADME, organism-based, Macaca fascicularis; set-up: dose 3 mg/kg, route intravenous; details: in vivo, read-out: Vdss
[2] = tested on: Cynomolgus monkey; experiment: Blood clerance in cynomolgus monkey relative to hepatic blood flow; format: ADME, organism-based, Macaca fascicularis; details: in vivo
[3] = Volume of distribution at steady state in Beagle dog at 3 mg/kg, iv; format: ADME, organism-based, Canis lupus familiaris; set-up: dose 3 mg/kg, route intravenous; details: in vivo, read-out: Vdss
[4] = tested on: Streptococcus pneumoniae; experiment: Antibacterial activity against Streptococcus pneumoniae 1629 infected in nonneutropenic mouse assessed as reduction in bacterial burden in lungs at 100 mg/kg, po bid after 48 hrs; format: functional, Lung
[5] = tested on: Streptococcus pneumoniae; experiment: Antibacterial activity against Streptococcus pneumoniae 1629 assessed as growth inhibition after 18 to 24 hrs by broth microdilution method; format: functional
[6] = Intrinsic clearance in monkey liver microsomes; format: ADME, Macaca mulatta, Microsome; details: rhesus monkey
[7] = species: Rattus norvegicus; experiment: Blood clerance in Sprague-Dawley rat relative to hepatic blood flow; format: ADME, organism-based; details: in vivo
[8] = Plasma protein binding in monkey; format: ADME, cell-free, Macaca mulatta; details: rhesus monkey, read-out: PPB (converted)
[9] = molecular target: T1, Voltage-gated inwardly rectifying potassium channel KCNH2 (Homo sapiens, UniProt Q12809); experiment: Inhibition of human ERG by patch clamp assay
T1 sequence (Q12809 whole entry): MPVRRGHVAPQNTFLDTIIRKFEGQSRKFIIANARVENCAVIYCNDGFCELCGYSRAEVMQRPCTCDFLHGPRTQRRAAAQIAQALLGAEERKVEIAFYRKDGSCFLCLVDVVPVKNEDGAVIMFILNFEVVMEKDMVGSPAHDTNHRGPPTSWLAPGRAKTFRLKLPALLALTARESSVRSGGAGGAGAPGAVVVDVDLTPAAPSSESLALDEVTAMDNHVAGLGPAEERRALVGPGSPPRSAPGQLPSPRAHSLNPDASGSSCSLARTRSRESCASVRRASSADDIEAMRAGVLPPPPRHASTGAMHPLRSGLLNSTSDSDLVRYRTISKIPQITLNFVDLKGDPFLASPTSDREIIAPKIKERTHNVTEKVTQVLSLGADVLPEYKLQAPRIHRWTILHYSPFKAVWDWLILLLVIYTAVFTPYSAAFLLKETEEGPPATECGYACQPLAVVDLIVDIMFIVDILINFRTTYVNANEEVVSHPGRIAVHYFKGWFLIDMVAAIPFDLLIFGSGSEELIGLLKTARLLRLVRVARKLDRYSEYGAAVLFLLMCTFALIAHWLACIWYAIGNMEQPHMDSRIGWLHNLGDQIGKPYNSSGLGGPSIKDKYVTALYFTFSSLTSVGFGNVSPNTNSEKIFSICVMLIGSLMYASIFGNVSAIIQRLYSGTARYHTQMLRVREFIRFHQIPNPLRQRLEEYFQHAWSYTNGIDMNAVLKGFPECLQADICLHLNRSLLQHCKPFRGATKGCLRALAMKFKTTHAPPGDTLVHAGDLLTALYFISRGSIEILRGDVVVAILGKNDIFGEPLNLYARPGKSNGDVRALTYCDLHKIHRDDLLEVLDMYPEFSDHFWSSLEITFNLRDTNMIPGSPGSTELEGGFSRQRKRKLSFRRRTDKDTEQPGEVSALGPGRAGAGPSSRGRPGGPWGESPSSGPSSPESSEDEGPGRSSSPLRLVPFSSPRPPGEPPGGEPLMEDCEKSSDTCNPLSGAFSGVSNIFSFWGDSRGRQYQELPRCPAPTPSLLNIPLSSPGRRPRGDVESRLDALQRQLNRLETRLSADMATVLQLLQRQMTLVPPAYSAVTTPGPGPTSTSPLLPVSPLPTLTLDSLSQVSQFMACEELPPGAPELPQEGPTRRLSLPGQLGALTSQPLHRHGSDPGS

[10] = tested on: Staphylococcus aureus; experiment: Antibacterial activity against Staphylococcus aureus WCUH-29 assessed as growth inhibition after 18 to 24 hrs by broth microdilution method; format: functional
[11] = Half life in Sprague-Dawley rat at 3 mg/kg, iv; format: ADME, organism-based; set-up: dose 3 mg/kg, route intravenous; details: in vivo
[12] = Half life in Beagle dog at 3 mg/kg, iv; format: ADME, organism-based, Canis lupus familiaris; set-up: dose 3 mg/kg, route intravenous; details: in vivo
[13] = Half life in cynomolgus monkey at 3 mg/kg, iv; format: ADME, organism-based, Macaca fascicularis; set-up: dose 3 mg/kg, route intravenous; details: in vivo
[14] = tested on: Haemophilus influenzae; experiment: Antibacterial activity against Haemophilus influenzae H128 assessed as growth inhibition after 18 to 24 hrs by broth microdilution method; format: functional
[15] = AUC in Beagle dog at 5 mg/kg, po; format: ADME, organism-based, Canis lupus familiaris; set-up: dose 5 mg/kg, route oral; details: plasma
[16] = tested on: Liver microsomes; experiment: Intrinsic clearance in human liver microsomes; format: ADME, Microsome
[17] = Oral bioavailability in cynomolgus monkey at 5 mg/kg; format: ADME, organism-based, Macaca fascicularis; details: in vivo
[18] = species: Canis familiaris; experiment: Toxicity in dog assessed as hepatic portal tract lesions measured for 14 days by GLP assay; format: organism-based, Canis lupus familiaris; details: in vivo, 336 h
[19] = Clearance in Beagle dog at 3 mg/kg, iv; format: ADME, organism-based, Canis lupus familiaris; set-up: dose 3 mg/kg, route intravenous; details: in vivo
[20] = Inhibition of DNA gyrase-dependent DNA replication in toluenized-Haemophilus influenzae cells assessed as ATP-dependent [33P]-TTP incorporation after 30 mins by scintillation proximity assay; details: 0.5 h
[21] = Cmax in nonneutropenic mouse infected with Streptococcus pneumoniae 1629 at 50 mg/kg, po bid; format: ADME, organism-based; set-up: dose 50 mg/kg, route oral; details: in vivo
[22] = Oral bioavailability in Beagle dog at 5 mg/kg; format: ADME, organism-based, Canis lupus familiaris; details: in vivo
[23] = AUC in Sprague-Dawley rat at 5 mg/kg, po; format: ADME, organism-based; set-up: dose 5 mg/kg, route oral; details: plasma
[24] = Oral bioavailability in Sprague-Dawley rat at 5 mg/kg; format: ADME, organism-based; details: in vivo
[25] = Volume of distribution at steady state in Sprague-Dawley rat at 3 mg/kg, iv; format: ADME, organism-based; set-up: dose 3 mg/kg, route intravenous; details: in vivo, read-out: Vdss
[26] = molecular target: T1, Voltage-gated inwardly rectifying potassium channel KCNH2; experiment: Inhibition of human ERG transfected in HEK293 cells by patch clamp assay; format: cell-based
[27] = Clearance in Sprague-Dawley rat at 3 mg/kg, iv; format: ADME, organism-based; set-up: dose 3 mg/kg, route intravenous; details: in vivo
[28] = AUC in nonneutropenic mouse infected with Streptococcus pneumoniae 1629 at 50 mg/kg, po bid measured per day; format: ADME, organism-based; set-up: dose 50 mg/kg, route oral; details: plasma
[29] = species: Canis familiaris; experiment: Renal clerance in Beagle dog relative to total clearance; format: ADME, organism-based, Canis lupus familiaris, Kidney; details: in vivo
[30] = species: Canis familiaris; experiment: Blood clerance in Beagle dog relative to hepatic blood flow; format: ADME, organism-based, Canis lupus familiaris; details: in vivo
[31] = tested on: Cynomolgus monkey; experiment: Renal clerance in cynomolgus monkey relative to total clearance; format: ADME, organism-based, Macaca fascicularis, Kidney; details: in vivo
[32] = Clearance in cynomolgus monkey at 3 mg/kg, iv; format: ADME, organism-based, Macaca fascicularis; set-up: dose 3 mg/kg, route intravenous; details: in vivo
[33] = Plasma protein binding in dog; format: ADME, cell-free, Canis lupus familiaris; details: read-out: PPB (converted)
[34] = Plasma protein binding in rat; format: ADME, cell-free; details: read-out: PPB (converted)
[35] = AUC in cynomolgus monkey at 5 mg/kg, po; format: ADME, organism-based, Macaca fascicularis; set-up: dose 5 mg/kg, route oral; details: plasma
[36] = tested on: Liver; experiment: Intrinsic clearance in dog liver microsomes; format: ADME, Canis lupus familiaris, Microsome
[37] = tested on: Streptococcus pneumoniae; experiment: Antibacterial activity against Streptococcus pneumoniae 1629 infected in nonneutropenic mouse assessed as reduction in bacterial burden in lungs at 50 mg/kg, po bid after 48 hrs relative to 1 hr nontreated control; format: functional, Lung
[38] = Plasma protein binding in human; format: ADME, cell-free; details: read-out: PPB (converted)

SMILES: O=c1ccc2ncc(F)c3c2n1C[C@@]3(O)CN1CCC(NCc2cc3c(cn2)OCCO3)CC1
- Vd [1]: 3.4 L/kg
- CL [2]: 50%
- Vd [3]: 6.4 L/kg
- log10cfu [4]: 1.7
- MIC [5]: 0.125 µg/mL (≈ 0.267 µM)
- CLH [6]: 1.6 mL/min/g
- CL [7]: 100%
- fraction unbound [8]: 0.781
- IC50 [9]: 239 µM
- MIC [10]: 0.125 µg/mL (≈ 0.267 µM)
- half-life [11]: 3.1 h
- half-life [12]: 7.1 h
- half-life [13]: 2.3 h
- MIC [14]: 1 µg/mL (≈ 2.14 µM)
- AUC [15]: 2820 ng·h/mL
- CLH [16]: < 0.5 mL/min/g
- bioavailability [17]: 55%
- Activity [18]: Toxic
- clearance [19]: 18.1 mL/min/kg
- IC50 [20]: 0.035 µg/mL (≈ 0.0749 µM)
- Cmax [21]: 8000 ng/mL
- bioavailability [22]: 63%
- AUC [23]: 460 ng·h/mL
- bioavailability [24]: 34%
- Vd [25]: 8.6 L/kg
- IC50 [26]: 310 µM
- clearance [27]: 62.2 mL/min/kg
- AUC [28]: 50000 ng·h/mL
- CL [29]: 27%
- CL [30]: 50%
- CL [31]: 15%
- clearance [32]: 25.1 mL/min/kg
- fraction unbound [33]: 0.823
- fraction unbound [34]: 0.577
- AUC [35]: 1920 ng·h/mL
- CLH [36]: < 0.5 mL/min/g
- log10cfu [37]: 2
- fraction unbound [38]: 0.777

SMILES: O=c1ccc2ncc(F)c3c2n1C[C@]3(O)CN1CCC(NCc2cc3c(cn2)OCCO3)CC1
- MIC [5]: 4 µg/mL (≈ 8.56 µM)
- MIC [10]: 8 µg/mL (≈ 17.1 µM)
- MIC [14]: > 16 µg/mL
- Activity [18]: Non-toxic
- IC50 [20]: > 1.32 µg/mL

- MIC [5]: 0.06 µg/mL (≈ 0.128 µM)
- MIC [10]: 0.03 µg/mL (≈ 0.0639 µM)
- MIC [14]: 0.5 µg/mL (≈ 1.06 µM)
- IC50 [20]: 0.04 µg/mL (≈ 0.0852 µM)
SMILES: O=c1ccc2ncc(F)c3c2n1C[C@@]3(F)CN1CCC(NCc2cc3c(cn2)OCCO3)CC1
- Activity [18]: Non-toxic

- MIC [5]: 0.06 µg/mL (≈ 0.133 µM)
- MIC [10]: 0.03 µg/mL (≈ 0.0664 µM)
- MIC [14]: 0.25 µg/mL (≈ 0.554 µM)
- IC50 [20]: 0.035 µg/mL (≈ 0.0775 µM)
SMILES: O=c1ccc2ncc(F)c3c2n1C[C@H]3CN1CCC(NCc2cc3c(cn2)OCCO3)CC1
- IC50 [9]: 58 µM
- Activity [18]: Non-toxic
- IC50 [26]: 122 µM

- MIC [5]: 0.125 µg/mL (≈ 0.268 µM)
- MIC [10]: 0.06 µg/mL (≈ 0.129 µM)
- MIC [14]: 1 µg/mL (≈ 2.14 µM)
- IC50 [20]: 0.071 µg/mL (≈ 0.152 µM)
SMILES: O=c1ccc2ccc(F)c3c2n1C[C@@]3(O)CN1CCC(NCc2cc3c(cn2)OCCO3)CC1
- Activity [18]: Non-toxic

- MIC [5]: 0.125 µg/mL (≈ 0.267 µM)
- MIC [10]: 0.125 µg/mL (≈ 0.267 µM)
- MIC [14]: 0.5 µg/mL (≈ 1.07 µM)
- IC50 [20]: 0.058 µg/mL (≈ 0.124 µM)
SMILES: O=c1cnc2ccc(F)c3c2n1C[C@@]3(O)CN1CCC(NCc2cc3c(cn2)OCCO3)CC1
- IC50 [9]: 101 µM
- Activity [18]: Non-toxic
- IC50 [26]: 206 µM

- MIC [5]: 0.25 µg/mL (≈ 0.515 µM)
- MIC [10]: 0.25 µg/mL (≈ 0.515 µM)
- MIC [14]: 0.5 µg/mL (≈ 1.03 µM)
- IC50 [20]: 0.037 µg/mL (≈ 0.0762 µM)
SMILES: O=c1c(F)cc2ncc(F)c3c2n1C[C@@]3(O)CN1CCC(NCc2cc3c(cn2)OCCO3)CC1
- IC50 [9]: 289 µM
- Activity [18]: Non-toxic

- MIC [5]: 4 µg/mL (≈ 8.31 µM)
- MIC [10]: 4 µg/mL (≈ 8.31 µM)
- MIC [14]: 16 µg/mL (≈ 33.2 µM)
- IC50 [20]: 1.21 µg/mL (≈ 2.52 µM)
SMILES: O=c1ccc2ncc(F)c3c2n1C[C@@]3(O)CN1CCC[C@@H](CNCc2cc3c(cn2)OCCO3)C1
- Activity [18]: Non-toxic

- MIC [5]: 4 µg/mL (≈ 8.27 µM)
- MIC [10]: > 16 µg/mL
- MIC [14]: 4 µg/mL (≈ 8.27 µM)
- IC50 [20]: 0.361 µg/mL (≈ 0.747 µM)
SMILES: O=c1ccc2ncc(F)c3c2n1C[C@@]3(O)CN1CCO[C@@H](CNCc2cc3c(cn2)OCCO3)C1
- Activity [18]: Non-toxic
